Results: patent publication US12257228B2, “Cardioversion methods using budiodarone” (Xyra, LLC, priority 2023, dated 2025)
Like-named read-outs stand apart in the source and are kept apart here.

Assays:
[1] = Trough plasma concentration of budiodarone during b.i.d. dosing cycles and washout; format: in vivo, patients
Experimental: (§1) It is noted that budiodarone concentrations used in the examples below include both the free acid and the free base versions of budiodarone.
(§2) In this example, patients were selected with long episodes of either paroxysmal or persistent AFib. Each of the patients was implanted with a pacemaker which monitored their heart rhythm. Patients were then evaluated for disease progression by monitoring their heart rhythm without budiodarone treatment in order to generate a baseline level of the duration of episodes of AFib. The baseline data was collected over two weeks. Patients were then given incremental doses of budiodarone at 200 mg b.i.d; 400 mg b.i.d.; 600 mg b.i.d.; and 800 mg b.i.d. where each dose was maintained for 2 weeks for a total of 4 treatment periods. A two-week washout period was employed after the completion of the 800 mg b.i.d. treatment period, wherein a washout period is the time after the last treatment to avoid misinterpreting observations about study-related treatments that may have been due to prior therapies. Pacemaker data were downloaded on days 8 and 14 of each two-week cycle and averages for each test period are shown. Blood was collected during each cycle and tested for the concentration of budiodarone.

[2] = system: patients with long episodes of either paroxysmal or persistent AFib; assay: Duration of AFib episodes under incremental b.i.d. doses of budiodarone (pacemaker monitoring); format: in vivo; conditions: for Average Episode duration: baseline 4.8 hrs
Experimental: as §2

[3] = Budiodarone concentrations in plasma over time after different single doses (FIG. 1); format: in vivo, patients
Experimental: as §1
In this example, plasma concentrations of budiodarone were evaluated using different single-dosing amounts of the drug. […] The resulting data was placed on a graph and the data for each concentration provided for both a Cmax for the dose employed as well as a trough value at 6 hours.

[4] = cited from earlier work
[5] = Impact of food on plasma budiodarone concentration, fasting versus fed (FIG. 2); format: in vivo, patients
Experimental: This example evaluates the impact on plasma budiodarone concentrations based on a fasting or fed patient. In this example, patients were either fasting or fed before the administration of budiodarone. After budiodarone administration, blood was collected from the patients, and the plasma concentration of budiodarone was determined. FIG. 2 illustrates that in the same dosing of budiodarone, the uptake of budiodarone increased as evidenced by the Cmax values.

CC[C@H](C)OC(=O)Cc1oc2ccccc2c1C(=O)c1cc(I)c(OCCN(CC)CC)c(I)c1 [budiodarone, (S)-sec-butyl2-(3-(4-(2-(diethylamino)ethoxy)-3,5-diiodobenzoyl)benzofuran-2-yl)acetate]
Trough Pk levels ng/ml in plasma ([1]; 200 mg bid, doses approximately 12 hours apart): 2.4 +/ ng/ml
Trough Pk levels ng/ml in plasma ([1]; 400 mg bid, doses approximately 12 hours apart): 5.2 +/ ng/ml
Trough Pk levels ng/ml in plasma ([1]; 600 mg bid, doses approximately 12 hours apart): 13.1 +/ ng/ml
Trough Pk levels ng/ml in plasma ([1]; 800 mg bid, doses approximately 12 hours apart): 19.8 +/ ng/ml
washout trough concentration as share of the trough concentration at 800 mg b.i.d. ([1]; 2 weeks post 800 mg b.i.d.): about 1.5%
concentration at 12 h ([1]; human, plasma, 800 mg b.i.d., doses approximately 12 hours apart, read-out: Trough Pk levels ng/ml in plasma): 19.8 ng/mL
concentration at 2 weeks ([1]; human, plasma, 800 mg b.i.d., washout, 2 weeks post 800 mg bid, read-out: Trough Pk levels ng/ml in plasma): 0.3 ng/mL
Trough Pk levels ng/ml in plasma ([1]; washout, 2 weeks post 800 mg bid): 0.3 +/ ng/ml
Average Episode duration ([2]; 200 mg bid for 2 weeks, average of pacemaker downloads on days 8 and 14): 1.7 h
Average Episode duration ([2]; 400 mg bid for 2 weeks): 0.6 h
longest average duration of AFib ([2]; 600 mg b.i.d.): 6 min
Average Episode duration ([2]; 600 mg bid for 2 weeks): 0.1 h
Average Episode duration ([2]; 800 mg bid for 2 weeks): 0.5 h
maximum duration AFib levels ([2]; all dosing levels from 400 mg b.i.d. to 800 mg b.i.d.): less than 45 minutes
Average Episode duration ([2]; two-week washout after 800 mg bid): 2.4
plasma concentration maintained for over 6 hours ([3]; each single dose at or above 400 mg): greater than 13 ng/mL
plasma level maintained for at least 6 hours ([3]; high dosing, bolus such as 1,000 mg): above 13 ng/mL
plasma concentration for up to about 6 hours ([3]; high single dose (about 800 mg to 1200 mg), see FIG. 1): over 40 ng/mL
Cmax ([3]; human, plasma, oral, 1000 mg, bolus such as 1,000 mg, read-out: Cmax concentration in plasma): > 300 ng/mL
concentration at 8 h ([3]; human, plasma, oral, 1000 mg, bolus such as 1,000 mg, read-out: plasma concentration in about 8 hours): < 20 ng/mL
Cmax ([3]; human, plasma, oral, each single dose at or above 400 mg, plasma, read-out: Cmax): > 50 ng/mL
Cmax ([3]; human, plasma, oral, high single dose (about 800 mg to 1200 mg), see FIG. 1, read-out: Cmax): ≤ 350 ng/mL
concentration at 6 h ([3]; human, plasma, oral, single dose at 800 mg or 1,000 mg): ~50 ng/mL
concentration at 8 h ([3]; human, plasma, oral, single dose at 800 mg or 1,000 mg, read-out: plasma concentration at 8 hours): ≥ 15 ng/mL
half-life compared with amiodarone [4]: much shorter half-life than amiodarone
effect on QT interval ([4]; while reducing episodes of long-duration AFib): without a significant increase in the QT interval
shift in time of Cmax in the fed group versus fasted patients ([5]; fed versus fasted patients): about an hour later
uptake of budiodarone as evidenced by the Cmax values, fed versus fasting ([5]; same dosing of budiodarone, fed versus fasting patients): increased
effective plasma level within 60 min, maintained for up to 6 hours ([5]; single oral dose of 400-1,000 mg, whether or not taken with food): > 50 ng/mL
